Test results published in ChEMBL document CHEMBL2057136, “Discovery of MEK/PI3K dual inhibitor via structure-based virtual screening” (Bioorg Med Chem Lett, 2012).

Legend:
[1] = biological target: T1, Dual specificity mitogen-activated protein kinase kinase 1 (Homo sapiens, UniProt Q02750); experiment: Inhibition of MEK1 at 10 uM using [gamma32P]ATP by radiometric kinase assay
[2] = biological target: T1, Dual specificity mitogen-activated protein kinase kinase 1; experiment: Inhibition of MEK1 using [gamma32P]ATP by radiometric kinase assay
[3] = biological target: Phosphatidylinositol 4,5-bisphosphate 3-kinase catalytic subunit alpha isoform (Homo sapiens, UniProt P42336); experiment: Inhibition of PI3Kalpha using [gamma32P]ATP by radiometric kinase assay
[4] = biological target: Dual specificity mitogen-activated protein kinase kinase 2 (Homo sapiens, UniProt P36507); experiment: Inhibition of MEK2 using [gamma32P]ATP by radiometric kinase assay
Sequence of Dual specificity mitogen-activated protein kinase kinase 2 (P36507 whole entry): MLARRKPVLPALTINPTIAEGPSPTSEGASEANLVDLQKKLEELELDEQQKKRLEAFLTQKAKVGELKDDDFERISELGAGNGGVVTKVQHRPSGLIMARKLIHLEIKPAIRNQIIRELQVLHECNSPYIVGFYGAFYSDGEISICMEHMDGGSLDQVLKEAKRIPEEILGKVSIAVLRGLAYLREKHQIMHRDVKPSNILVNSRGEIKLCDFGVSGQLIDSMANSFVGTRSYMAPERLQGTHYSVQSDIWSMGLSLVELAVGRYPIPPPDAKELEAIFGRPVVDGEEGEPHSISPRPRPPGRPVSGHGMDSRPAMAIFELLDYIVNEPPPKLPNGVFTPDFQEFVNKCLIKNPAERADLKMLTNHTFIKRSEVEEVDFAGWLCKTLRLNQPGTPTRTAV

Sequence of Phosphatidylinositol 4,5-bisphosphate 3-kinase catalytic subunit alpha isoform (P42336 whole entry, canonical isoform): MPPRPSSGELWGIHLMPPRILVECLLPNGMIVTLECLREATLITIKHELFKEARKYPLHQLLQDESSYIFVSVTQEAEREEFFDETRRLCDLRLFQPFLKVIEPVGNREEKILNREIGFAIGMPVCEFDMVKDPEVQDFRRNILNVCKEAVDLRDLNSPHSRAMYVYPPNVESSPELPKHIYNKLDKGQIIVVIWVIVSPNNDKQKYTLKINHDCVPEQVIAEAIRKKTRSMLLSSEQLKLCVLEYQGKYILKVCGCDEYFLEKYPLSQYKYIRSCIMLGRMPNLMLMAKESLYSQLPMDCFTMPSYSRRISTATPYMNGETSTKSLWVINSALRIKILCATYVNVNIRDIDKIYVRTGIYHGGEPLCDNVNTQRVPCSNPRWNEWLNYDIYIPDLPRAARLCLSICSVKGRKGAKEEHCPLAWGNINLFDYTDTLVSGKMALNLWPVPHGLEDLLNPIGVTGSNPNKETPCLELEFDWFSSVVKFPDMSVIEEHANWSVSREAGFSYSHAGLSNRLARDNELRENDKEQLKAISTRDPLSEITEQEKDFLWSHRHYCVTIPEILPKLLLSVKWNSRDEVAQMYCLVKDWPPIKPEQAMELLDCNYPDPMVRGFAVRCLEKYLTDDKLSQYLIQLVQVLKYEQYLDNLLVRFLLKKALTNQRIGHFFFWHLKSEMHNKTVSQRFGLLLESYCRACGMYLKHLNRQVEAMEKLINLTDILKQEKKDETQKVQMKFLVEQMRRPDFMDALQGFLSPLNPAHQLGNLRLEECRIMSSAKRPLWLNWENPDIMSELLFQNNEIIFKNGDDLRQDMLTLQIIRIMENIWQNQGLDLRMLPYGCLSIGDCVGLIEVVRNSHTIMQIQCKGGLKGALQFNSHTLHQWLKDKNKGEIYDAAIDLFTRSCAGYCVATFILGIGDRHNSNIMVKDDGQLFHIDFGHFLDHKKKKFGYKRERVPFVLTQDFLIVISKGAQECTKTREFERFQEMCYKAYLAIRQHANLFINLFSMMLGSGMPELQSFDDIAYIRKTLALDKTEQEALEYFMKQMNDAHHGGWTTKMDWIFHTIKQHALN
T1 sequence (Q02750 whole entry): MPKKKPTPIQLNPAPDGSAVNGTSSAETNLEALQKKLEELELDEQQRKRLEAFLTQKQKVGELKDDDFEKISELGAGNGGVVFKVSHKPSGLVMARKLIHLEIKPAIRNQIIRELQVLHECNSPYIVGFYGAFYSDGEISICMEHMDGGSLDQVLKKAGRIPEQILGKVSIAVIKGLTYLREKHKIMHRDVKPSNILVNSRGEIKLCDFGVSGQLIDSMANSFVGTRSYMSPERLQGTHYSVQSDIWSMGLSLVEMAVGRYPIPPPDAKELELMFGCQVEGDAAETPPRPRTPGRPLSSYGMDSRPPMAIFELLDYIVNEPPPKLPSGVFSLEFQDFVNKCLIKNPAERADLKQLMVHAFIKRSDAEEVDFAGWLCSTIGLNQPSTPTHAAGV

| SMILES | inhibition [1] | IC50 [2] | IC50 [3] | IC50 [4] |
| --- | --- | --- | --- | --- |
| O=C(O)c1cccc(N2C(=O)/C(=C\c3cnc4ccccc4n3)SC2=S)c1 | > 30% | 23.1 µM | > 30 µM |  |
| OCCNc1ncnc2oc(-c3ccccc3)c(-c3ccccc3)c12 | > 30% | 12.3 µM | > 30 µM |  |
| N=C1/C(=C\c2coc3ccccc3c2=O)C(=O)N=C2SC(c3ccc(O)cc3)=NN12 | > 30% | 8.5 µM | 10.2 µM |  |
| N=C1/C(=C\c2ccc(O)c(O)c2)C(=O)N=C2SC(c3ccc(O)cc3)=NN12 | > 30% | 2.2 µM | 0.3 µM | 1.3 µM |
